According to publication PMC5941726, “Evaluating Hepatobiliary Transport with ^18F-Labeled Bile Acids: The Effect of Radiolabel Position and Bile Acid Structure on Radiosynthesis and In Vitro and In Vivo Performance” (Contrast Media & Molecular Imaging, 2018):
Where two headings read alike, the source gives them in different places.

Experiments:
[1] = biological target: T1, OATP1B1 (Homo sapiens, UniProt Q9Y6L6); assay: Inhibition of [^3H]estradiol-17β-glucuronide uptake in HEK cells expressing OATP1B1 (competition assay)
T1 sequence (Q9Y6L6 1-691): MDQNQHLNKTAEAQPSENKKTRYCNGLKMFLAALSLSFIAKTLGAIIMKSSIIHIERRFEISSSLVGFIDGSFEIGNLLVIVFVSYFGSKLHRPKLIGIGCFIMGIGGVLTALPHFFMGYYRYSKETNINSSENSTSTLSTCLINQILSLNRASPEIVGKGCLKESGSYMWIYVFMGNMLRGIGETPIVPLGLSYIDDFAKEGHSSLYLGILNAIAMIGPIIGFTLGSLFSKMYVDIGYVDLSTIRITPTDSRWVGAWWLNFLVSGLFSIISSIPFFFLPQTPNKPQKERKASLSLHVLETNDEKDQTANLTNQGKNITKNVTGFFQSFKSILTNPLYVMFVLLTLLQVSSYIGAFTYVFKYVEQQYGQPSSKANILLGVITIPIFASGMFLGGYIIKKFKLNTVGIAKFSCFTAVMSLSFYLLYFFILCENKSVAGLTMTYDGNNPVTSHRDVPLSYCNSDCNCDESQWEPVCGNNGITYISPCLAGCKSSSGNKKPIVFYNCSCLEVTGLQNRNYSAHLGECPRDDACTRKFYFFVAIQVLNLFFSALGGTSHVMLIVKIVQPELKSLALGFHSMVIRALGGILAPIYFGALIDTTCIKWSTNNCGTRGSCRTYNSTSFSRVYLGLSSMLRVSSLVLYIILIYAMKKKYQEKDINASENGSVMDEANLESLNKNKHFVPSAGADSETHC
Experimental: (§2) Chinese Hamster Ovary (CHO) and Human Embryonic Kidney (HEK) cells expressing NTCP and OATP1B1, respectively (Solvo Biotechnologies), were used.
(§3) Cells were seeded in 24-well plates at 400,000 cells/well. […] All dosing solutions were formulated in the washing buffer and dosing was executed in triplicate. The incubation was stopped by placing the plates on ice and adding 1 mL ice-cold 1% BSA HBSS-solution. The supernatant was aspirated and the cells were washed twice with 2 mL ice-cold HBSS-solution. NaOH (250 μl, 0.1 M) was added to lyse the cells and the plates were shaken (15 minutes, 37°C). Aliquots of this lysate were subjected to liquid scintillation counting (TriCarb 2900 TR; Perkin Elmer) and protein determination with a BCA-assay (ThermoFisher Scientific).

[2] = biological target: T1, OATP1B1; assay: cell-based
Experimental: as §2, §3

[3] = biological target: BSEP (Homo sapiens, UniProt O95342); assay: Inhibition of [^3H]TC uptake in BSEP membrane vesicles (efflux assay)
Experimental: All dosing was performed in triplicate. The plates were suspended in a 37°C water bath 1 minute before the incubation. Incubation was started by adding 10 μL of the ATP solution or buffer solution (negative control). Each well contained a final volume of 30 μL and the plates were incubated for 10 minutes at 37°C.
The contents of each well were pipetted in a glass fiber filter plate (Multiscreen HTS plates; Merck Millipore) and washed 3 times with 200 μL ice-cold buffer solution. Finally, 100 μL 0.1 M NaOH was added: lysis of the vesicles took place for 10 minutes at room temperature. An aliquot was used for liquid scintillation counting.

[4] = biological target: T2, NTCP (Homo sapiens, UniProt Q14973); assay: Inhibition of [^3H]taurocholate uptake in CHO cells expressing NTCP (competition assay); type: cell-based; conditions: 1 μM [^3H]TC, 15 min 37°C, Cheng-Prusoff from IC50 and Km, mean ± SD n = 3
T2 construct: host or cells: Chinese Hamster Ovary (CHO) cells
T2 sequence (Q14973 1-349): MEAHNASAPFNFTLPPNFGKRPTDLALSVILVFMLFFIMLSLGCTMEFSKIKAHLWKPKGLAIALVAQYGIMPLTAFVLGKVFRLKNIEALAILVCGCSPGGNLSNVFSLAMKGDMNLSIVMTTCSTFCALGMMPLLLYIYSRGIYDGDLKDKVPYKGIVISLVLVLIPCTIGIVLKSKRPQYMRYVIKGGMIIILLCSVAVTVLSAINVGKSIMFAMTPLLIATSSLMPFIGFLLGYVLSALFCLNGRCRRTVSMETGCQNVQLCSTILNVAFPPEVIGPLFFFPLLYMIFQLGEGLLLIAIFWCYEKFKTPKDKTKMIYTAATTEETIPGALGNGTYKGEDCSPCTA
From the text: Maintenance of these cell cultures was described earlier.

[5] = biological target: T1, OATP1B1
Experimental: as §2, §3

[6] = system: wild-type FVB-mice; assay: Dynamic PET/CT imaging of hepatobiliary transport in wild-type FVB-mice; type: in vivo, mouse; conditions: mouse, in vivo, iv; for Biliary clearance / Injected activity found in gallbladder and intestines after 1 hour: female, FVB; for Biliary clearance: 9 MBq
Experimental: The in vivo transport characteristics of the ^18F labeled bile acids were evaluated in wild-type FVB-mice (female, 5 w). The tracer described earlier, 3β-[^18F]FCA, was also included as a reference standard. Imaging was performed with a PET/CT (FLEX Triumph II small animal PET/CT-scanner; axial field of view: 7.5 cm; 1.3 mm spatial resolution; TriFoil Imaging). For each tracer, three animals were used. The animals were housed and handled in accordance with the European Ethics Committee guidelines and the experiments were approved by the Animal Experimental Ethical Committee of Ghent University (ECD 15/69).
Food and water were provided ad libitum, but the animals were fasted overnight before a PET/CT-scan. They were anesthetized with 1.5 v : v% isoflurane in O2 and placed on a heated bed. To allow injection of the tracer, a polyethylene intravenous line was inserted in the lateral tail vein and fixed. After the animals were transferred to the scanner animal bed, a 1 hour PET-scan was started and 9 MBq tracer was injected directly after starting the scan. Following this PET-scan, 9 MBq [^18F]FDG was injected and twenty minutes later, a second PET-scan with a 20-minute acquisition time was started.
All PET-scans were obtained in list-mode and were iteratively reconstructed (50 iterations). The 1-hour scan was reconstructed in the following frames: 8 × 15 s; 16 × 30 s; 10 × 60 s; 20 × 120 s. For presentation purposes, Maximum Intensity Projection PET/CT images were generated in Amide software. The data were analyzed using Pmod software v3.405 (PMOD Technologies): Regions Of Interest (ROIs) were drawn manually over the liver, gallbladder, and intestines. On the static [^18F]FDG scan, the left ventricle was delineated and this ROI was pasted on the dynamic scan to obtain an image-derived arterial blood concentration. The uptake of radioactivity in liver, gallbladder, and intestines was expressed as a percentage of the injected dose (% ID) and normalized for the weight of a 20 g mouse. The % ID in these organs was monitored in function of time to obtain time-activity curves (TACs). Biliary clearance of the tracers was determined with equation 2 from Ghibellini et al. [14](2) Biliary clearance=cumulative amount of tracer in gallbladder&intestines/AUC blood concentration0→60 min.
The Area Under the Curve (AUC), % ID, and time-to-peak values of the TACs were determined in GraphPad Prism v3.00 Software. The obtained parameters of the different ^18F labeled bile acids were compared to 3β-[^18F]FCA-values in SPSS Statistics 23 Software. Differences between two groups were analyzed with the nonparametric Mann–Whitney U test. A p value ≤ 0.05 was considered significant.

[7] = LogD determination of the tracers; type: physicochemical
Experimental: (§1) The logD-value, stability (in formulation for use and mouse serum), and identity of the tracer were assessed as described earlier. Radiochemical purity and percentage ^18F-labeling of precursor were determined by radio-TLC (silica gel TLC; with 10% MeOH in CH2Cl2 and 4 : 1 AcN : H2O, resp.).

[8] = Stability of the tracer in mouse serum; type: in vitro ADME
Experimental: as §1

[9] = Stability of the tracer in formulation for use; type: physicochemical
Experimental: as §1

Chain of BSEP (O95342 whole entry, species assumed): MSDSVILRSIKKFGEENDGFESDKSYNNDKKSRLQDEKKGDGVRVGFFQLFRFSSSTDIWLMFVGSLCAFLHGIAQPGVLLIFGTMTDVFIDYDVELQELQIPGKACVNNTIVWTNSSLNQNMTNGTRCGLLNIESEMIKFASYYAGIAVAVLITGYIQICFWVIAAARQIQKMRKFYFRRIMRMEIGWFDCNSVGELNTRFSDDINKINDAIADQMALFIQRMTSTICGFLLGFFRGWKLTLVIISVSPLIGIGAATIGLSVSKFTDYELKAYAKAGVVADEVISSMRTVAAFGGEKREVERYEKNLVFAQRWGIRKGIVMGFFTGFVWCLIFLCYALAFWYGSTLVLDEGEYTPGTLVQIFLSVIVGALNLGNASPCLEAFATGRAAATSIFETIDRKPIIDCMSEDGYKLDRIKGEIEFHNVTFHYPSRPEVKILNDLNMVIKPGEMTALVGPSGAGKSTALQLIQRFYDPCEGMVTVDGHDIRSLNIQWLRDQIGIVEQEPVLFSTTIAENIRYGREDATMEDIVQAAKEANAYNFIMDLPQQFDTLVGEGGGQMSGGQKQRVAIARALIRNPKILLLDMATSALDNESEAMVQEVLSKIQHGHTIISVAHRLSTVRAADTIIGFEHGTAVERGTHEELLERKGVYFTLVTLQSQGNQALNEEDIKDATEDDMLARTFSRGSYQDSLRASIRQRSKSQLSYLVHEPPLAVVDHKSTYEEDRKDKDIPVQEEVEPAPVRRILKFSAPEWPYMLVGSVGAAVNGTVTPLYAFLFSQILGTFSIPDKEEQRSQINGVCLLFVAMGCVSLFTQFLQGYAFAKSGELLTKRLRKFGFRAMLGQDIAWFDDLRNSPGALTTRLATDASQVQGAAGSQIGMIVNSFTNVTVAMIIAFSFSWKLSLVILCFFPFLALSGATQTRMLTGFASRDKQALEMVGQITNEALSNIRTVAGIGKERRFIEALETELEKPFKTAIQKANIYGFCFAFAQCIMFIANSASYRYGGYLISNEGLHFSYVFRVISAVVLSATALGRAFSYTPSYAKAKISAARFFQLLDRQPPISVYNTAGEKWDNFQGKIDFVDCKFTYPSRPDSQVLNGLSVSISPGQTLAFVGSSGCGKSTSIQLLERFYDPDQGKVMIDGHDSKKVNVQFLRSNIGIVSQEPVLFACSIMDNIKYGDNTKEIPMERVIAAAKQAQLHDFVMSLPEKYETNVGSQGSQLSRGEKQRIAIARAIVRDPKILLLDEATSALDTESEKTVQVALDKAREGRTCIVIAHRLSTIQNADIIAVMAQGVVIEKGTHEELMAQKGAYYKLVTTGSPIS

Row | Compound | Ki [3] [µM] | Ki [4] [µM] | Ki [5] [µM] | Biliary clearance [6] | Injected activity found in gallbladder and intestines after 1 hour [6] | Organ uptake after intravenous injection [6] | logD [7] | Stability in mouse serum [8] | Stability in its formulation [9] | further results
1 | C[C@]12CC[C@@H]3c4ccc(O)cc4CC[C@H]3[C@@H]1CC[C@@H]2O[C@@H]1O[C@H](C(=O)O)[C@@H](O)[C@H](O)[C@H]1O [[^3H]EbG, [^3H]estradiol-17β-glucuronide] |  |  |  |  |  |  |  |  |  | Vmax of substrate uptake ([1]; 0–150 μM, 10 min 37°C): 146.4 ± 5.52 pmol/min·mg protein; Km ([1]; read-out: Km (Michaelis-Menten) of substrate uptake, 0–150 μM, 10 min 37°C): 11.7 ± 1.59 µM
2 | C[C@H](CCC(=O)O)[C@H]1CC[C@H]2[C@@H]3[C@H](O)C[C@@H]4C[C@H](O)CC[C@]4(C)[C@H]3C[C@H](O)[C@]12C [CA, Cholic acid] |  |  |  |  |  |  |  |  |  | Ki [2]: 42.7 ± 0.16 µM
3 | C[C@H](CCC(=O)O)[C@H]1CC[C@H]2[C@@H]3[C@H](O)C[C@@H]4C[C@H](F)CC[C@]4(C)[C@H]3C[C@H](O)[C@]12C [3αFCA, 3α-fluorocholic acid] | 199 ± 39.5 | 2.53 ± 0.76 | 5.22 ± 0.56 |  |  |  |  |  |  | 
4 | C[C@H](CCC(=O)O)[C@H]1CC[C@H]2[C@@H]3[C@H](O)C[C@@H]4C[C@@H](F)CC[C@]4(C)[C@H]3CC[C@]12C [3βFCDCA] | 48.2 ± 3.94 | 0.91 ± 0.02 | 0.64 ± 0.07 |  |  |  |  |  |  | 
5 | C[C@H](CCC(=O)NCC(=O)O)[C@H]1CC[C@H]2[C@@H]3[C@H](O)C[C@@H]4C[C@@H]([18F])CC[C@]4(C)[C@H]3C[C@H](O)[C@]12C [3β-[^18F]FGCA, 3β-[^18F]fluoroglycocholic acid] |  |  |  | 0.47 ± 0.07 mL/min | approx. 80% | exclusive hepatic uptake | 0.011 ± 0.037 | stable | stable | 
6 | C[C@H](CCC(=O)O)[C@H]1CC[C@H]2[C@@H]3[C@H](O)C[C@@H]4C[C@@H]([18F])CC[C@]4(C)[C@H]3CC[C@]12C [3β-[^18F]FCDCA, 3β-[^18F]fluorochenodeoxycholic acid] |  |  |  | 0.18 ± 0.04^∗ mL/min | 60% | exclusive hepatic uptake | 1.42 ± 0.16 | stable | stable | 
